From patent US20220296667A1, “COMPOSITION FOR A[…] TREATING NARCOLEPSY, […] RICE BRAN POWDER AS ACTIVE INGREDIENT, AND PREPARATION METHOD THEREFOR” (RAPHAGEN, priority 2019, published 2022)

Assays:
[1] = background art; cited from earlier work
[2] = test system: zebrafish; assay: Dark/light transition of zebrafish; type: in vivo; conditions: dark and light conditions at 10-minute intervals, distance moved at 2-minute intervals; FIGS. 3, 4, 5
Method: The dark/light transition of zebrafish treated with the fermented rice bran powder obtained according to Example 1 was measured. Specifically, dark and light conditions were given at 10-minute intervals, and graphs for the distance moved at 2-minute intervals were measured (see FIGS. 3, 4, and 5).

[3] = test system: zebrafish; conditions: zebrafish whose brain is damaged by PTZ or the like; stated as known; cited from earlier work

Q: Which “half-life (in words)” value [1] does the source give for O=C(O)CCCO [GHB, Gamma hydroxybutyrate] here?
A: short half-life

Q: For C1CCc2nnnn2CC1 [PTZ, Pentylenetetrazol], which “behavior pattern to dark/light (distance moved)” value [2] is on record?
A: moved regardless of the light/dark division

Q: What about the color recognition [3] of the same compound?
A: color cannot be normally recognized

Q: Which half-life [1] does the source give for NC(=O)C[S+]([O-])C(c1ccccc1)c1ccccc1 (stereo not shown) [modafinil, Modafinil] here?
A: ≥ 15 h
